This note sets out measurements from patent US20240300913A1, “FLAVONE DERIVATIVE AND USE THEREOF FOR IMPROVING PULMONARY FIBROSIS” (A-CHEMBIO CO., LTD, priority 2023, published 2024).

Data set [1] concerns A549 cells. In words: Effect upon EGF treatment in A549 cells (western blot of protein levels). The class given is cell-based. To be noted: 1 hour. The method, then: A549 cells, derived from lung cancer, were incubated at different cell numbers depending on the sample treatment time. 4.5×10^5 cells (30 minutes to 12 hours), 4.0×10^5 cells (24 hours), and 3.5×10^5 cells (48 hours) were suspended in the respective media, dispensed into a 60-mm plate, and incubated for 24 hours. After 24 hours, each plate was treated with EGF (2 ng/ml) alone or in combination with novel flavone derivative I at varying concentrations or a predetermined concentration. After a predetermined period (30 minutes to 48 hours) of incubation, the cells were lysed with RIPA lysis buffer ([50 mM Tris]-Cl (pH, 7.4), 1% NP-40, 150 mM NaCl, 1 mM EDTA, and 1 mM, phenylmethylsulfonyl fluoride (PMSF)) containing MG-132 (10 μM). Next, only the supernatant was collected by centrifugation (at 14,000 rpm for 10 minutes) at 4° C., and the proteins were separated by SDS-polyacrylamide gel electrophoresis (SDS-PAGE). […]
FIGS. 11 and 12 show the results thereof. […] Thus, the degree to which pulmonary fibrosis-related factors, whose expression levels were increased in A549 cells by EGF treatment, were inhibited by the treatment with novel flavone derivative I was evaluated.
The effect of novel flavone derivative II upon EGF treatment in A549 cells was evaluated in the same manner as in Example 1 above.
Background: In western blotting, separated proteins are transferred to a membrane and probed.

In data set [2] the test system is HULEC-5a cells. Briefly: Effect upon TGF-β1 treatment in Hulec-5a cells (western blot of protein levels). The data set is classed as cell-based, human. The method, then:
1.2×10^6 Hulec-5a cells, derived from pulmonary vessels, were suspended in a medium, dispensed into a 100-mm plate, and incubated for 24 hours. After 24 hours of incubation, each plate was treated with TGF-β1 (10 ng/ml) alone or in combination with novel flavone derivative I at varying concentrations or a predetermined concentration and/or nintedanib (NIDB), a therapeutic drug for idiopathic pulmonary fibrosis and interstitial lung disease. After 3, 24, and 48 hours of incubation, the cells were lysed with RIPA lysis buffer ([50 mM Tris]-Cl (pH, 7.4), 1% NP-40, 150 mM NaCl, 1 mM EDTA, and 1 mM phenylmethylsulfonyl fluoride (PMSF)) containing MG-132 (10 μM, proteasome inhibitor, protect the HIF-1α subunit from proteasome degradation). Next, only the supernatant was collected by centrifugation (at 13,000 rpm for 7 minutes) at 4° C., and the proteins were separated by SDS-polyacrylamide gel electrophoresis (SDS-PAGE). The separated proteins were transferred to a polyvinylidene difluoride membrane (PVDF membrane), reacted in 5% nonfat dry milk for 2 hours, and then reacted with primary antibodies at 4° C. overnight. After overnight, the proteins further reacted with secondary antibodies corresponding to the respective primary antibodies. Then, the protein band was examined, according to the manufacturer's protocol, using an ECL kit.
The effect of novel flavone derivative II upon TGF-β1 treatment in Hulec-5a cells was evaluated in the same manner as in Example 1 above.
The effect of novel flavone derivative III upon TGF-β1 treatment in Hulec-5a cells was evaluated in the same manner as in Example 1 above.

In data set [3] the test system is HULEC-5a cells. Briefly: MTT cytotoxicity evaluation in HULEC-5a cells. To be noted: incubated for 24, 48, and 72 hours. The data set is classed as cell-based, human. The method, then:
To confirm the effect of novel flavone derivative I on cell viability, HULEC-5a, human lung microvascular endothelial cells, were used to examine cell viability with MTT [3-(4,5-dimethylthiazol-2-yl)-2,5-diphenyltetrazolium bromide]. After being suspended in a medium, HULEC-5a cells were dispensed into a 96-well plate and incubated for 24 hours. […] After incubation, all media was removed, and MTT was diluted (0.5 mg/mL) in phosphate-buffered saline (PBS). Then, 200 μL of the diluted MTT was dispensed into each well, and incubation was performed in a CO2 incubator for 4 hours. After 4 hours, the MTT solution was removed, and 160 μL of dimethyl sulfoxide (DMSO) was dispensed into each well to dissolve the formazan precipitate for 30 minutes. Next, the absorbance was measured at 570 nm.
(§1) Cytotoxicity tests of novel flavone derivative II (Achem II) on A549 cells, HULEC-5a cells, and HLF cells were performed in the same manner as in Example 1 above, using the MTT assay. The results thereof are shown in FIGS. 17 to 19 as cell viability (%) after 24, 48, and 72 hours compared to that of the control group, the untreated sample group.
(§2) Cytotoxicity tests of novel flavone derivative III (Achem III) on A549 cells, HULEC-5a cells, and HLF cells were performed in the same manner as in Example 1 above, using the MTT assay. The results thereof are shown in FIGS. 27 to 29 as cell viability (%) after 24, 48, and 72 hours compared to that of the control group, the untreated sample group.

Data set [4] deals with A549 cells. Briefly: MTT cytotoxicity evaluation in A549 cells. The data set is classed as cell-based. Particulars: for cell viability: compared to untreated control. The method, then: To confirm the effect of novel flavone derivative I on cell viability, A549 cells, derived from lung cancer, were used to examine cell viability with MTT [3-(4,5-dimethylthiazol-2-yl)-2,5-diphenyltetrazolium bromide]. After being suspended in a medium, A549 cells were dispensed into a 96-well plate and incubated for 24 hours. After 24 hours, 200 μL of a medium containing 0 to 20 μM BGC was added to each well of the plate and incubated for 24 or 48 hours. After incubation, MTT was diluted (0.5 mg/ml) in phosphate-buffered saline (PBS). Then, 20 μL of the diluted MTT was dispensed into each well, and incubation was performed in a CO2 incubator for 4 hours. After 4 hours, the MTT solution was removed, and 200 μL of dimethyl sulfoxide (DMSO) was dispensed into each well to dissolve the formazan precipitate for 5 minutes. Next, the absorbance was measured at 595 nm.
as §1, §2

Broadly, the cell viability is a per cent measure of how many cells are alive, often set against a control. Higher therefore signals better survival. For `COc1ccc(-c2c(-c3ccc(O)c(OC)c3)oc3cc(OC)c(OC)cc3c2=O)cc1` [novel flavone derivative II, 2-(4-hydroxy-3-methoxyphenyl)-6,7-dimethoxy-3-(4-methoxyphenyl)-4H-chromen-4-one], the “level of NOX2, a fibrosis-related factor increased by EGF treatment” value in data set [1] (2 ng/mL EGF and compound, FIG. 24) is listed as “decreased”. Besides, in data set [2] (Hulec-5a cells, TGF-β1 treatment, FIG. 22), the “levels of fibronectin, COL4, α-SMA, and HIF-1α, increased by TGF-β1 treatment” value is “decreased”. For the same compound, the cell viability is not below 80% in data set [3] (all treatment concentrations up to 10 μM, compared to untreated control); not below 80% in data set [4] (all treatment concentrations, incubated for 24 and 48 hours); not above 80% in data set [4] (concentrations of 3 μM or higher, incubated for 72 hours).
Turning to `COc1ccc(-c2c(-c3ccc(O)c(O)c3)oc3cc(OC)c(OC)cc3c2=O)cc1` [novel flavone derivative I, 2-(3,4-dihydroxyphenyl)-6,7-dimethoxy-3-(4-methoxyphenyl)-4H-chromen-4-one], in data set [1] (2 ng/mL EGF and compound at 1, 3, and 5 or 2 μM, FIGS. 11 and 12), the “levels of fibrosis-related factors (p-EGFR, EGFR, p-AKT, HIF-1α, and NOX2), increased by EGF treatment” value was “decreased”. In data set [2] (HULEC-5a cells, 10 ng/mL TGF-β1 and/or 5 μM compound, 3, 24, and 48 hours, FIG. 9), the “levels of fibrosis-related factors (Fibronectin, α-SMA, NOX1, NOX2, and NOX4), increased by TGF-β1 treatment” value is “decreased”. The cytotoxicity entry in data set [3] (treatment concentrations of up to 5 μM, MTT) is “No cytotoxicity was observed”; in data set [4] (treatment concentration of 5 μM, incubated for 24 hours, MTT), “No cytotoxicity was observed”. Besides, in data set [4] (treatment concentration of 5 μM, incubated for 48 hours), the cell viability entry is on record as “about 80%”.
